This is an account of results in patent US7511167B2, “Two-photon dyes for real-time imaging of lipid rafts” (Korea University Industry and Academy Cooperation Foundation, priority 2006, dated 2009).

Several values for one entry are separate records, joined by “and”; a condition that tells them apart may be missing. Equal values may be shown once. Read-outs that look alike come from different tables or passages of the source.

Data set [1] in a line: Spectroscopic measurements of the dyes in four solvents (Test Example 2). It counts as physicochemical. The following applies: for quantum yield in water relative to that in ethanol: water versus ethanol. The procedure:
The two-photon dyes prepared in Example 1 and Comparative Example 1 were dissolved in four solvents (hexane, DMF, ethanol and water), respectively. The one-photon maximum absorption wavelength (λmax), one-photon maximum emission wavelength (λ^f1max), two-photon maximum absorption wavelength (λ^(2)max), quantum yield (Φ) and two-photon absorption efficiency (δmax) of the solutions were measured, and the results are shown in Table 1. The absorption spectra were measured on a Hewlett-Packard 8453 diode array spectrophotometer. The fluorescence spectra were obtained with an Aminco Bowman series 2 luminescence spectrometer. The two-photon absorption efficiency means a maximum value of a two-photon cross section (δTPA). The two-photon cross section can be calculated by the following equation 1: […]
wherein the subscripts s and r represent sample and reference molecules, respectively, δ represents the two-photon cross section, S represents the strength of signals collected by a CCD detector, Φ represents the fluorescence quantum efficiency, φ represents the total fluorescence collection efficiency of an experimental system, c represents the number density of the molecules within each of the solutions, and δr represents the two-photon cross section of reference molecules.

A short description of data set [2]: Reflection tests of polarity of liposomes (Test Example 3). The format is physicochemical. Particulars: for fluorescence wavelength (peaks): DOPC liposomes; for maximum fluorescence wavelength: DPPC liposomes. The procedure:
Three kinds of liposomes having different fluidity (polarity) were prepared to examine how much the two-photon dyes prepared in Example 1 and Comparative Example 1 reflected the polarity of the liposomes. Specifically, DOPC liposomes were prepared from 1,2-dioleoyl-sn-glycerol-3-phosphocholine (DOPC) having unsaturated fatty acids so as to reflect the fluidity of phospholipids of plasma membranes. The DOPC liposomes were relatively fluid. DOPC/Sphingo/Chol liposomes were composed of DOPC, sphingomyelin and cholesterol in the same ratio so as to simultaneously reflect phospholipids and lipid rafts. DPPC liposomes were prepared from 1,2-dipalmitoyl-sn-glycerol-3-phosphocholine (DPPC) so as to reflect lipid rafts. The DPPC liposomes were in a gel state and had lowest fluidity. Next, the three kinds of liposomes were stained with Laurdan and TPD1, and their spectral properties were examined. Referring to FIGS. 3a (Laurdan) and 3b (TPD1), the maximum one-photon absorption wavelengths of Laurdan and TPD1 were in the range of 360-395 nm, regardless of the kind of the liposomes. However, the fluorescence intensity of the liposomes increased with the hydrophobicity of the liposomes in the order: DOPC<DOPC/Sphingo/Chol<DPPC. […] Referring to FIG. 3c, the maximum fluorescence wavelength of Laurdan in DPPC is 440 nm and the fluorescence spectrum of Laurdan in DOPC is broader.
In the meanwhile, the fluorescence wavelength bands of Laurdan in DOPC/Sphingo/Chol and DPPC were confirmed to overlap almost completely. […] In contrast, TPD1 prepared in Example 1 emitted fluorescence of 442 nm in DPPC and fluorescence of 486 nm in DOPC (FIG. 3d). In addition, the fluorescence spectrum of TPD1 in the DOPC/Sphingo/Chol liposomes is broad and almost the same as the sum of the spectra in the DPPC and DOPC liposomes.
On the other hand, the different kinds of liposomes were stained with TPD4 prepared in Example 4, and their fluorescence spectra were examined. Referring to FIG. 4, the fluorescence intensity of the fluid DOPC liposomes (in a hydrophilic environment) was ⅛ of that of the DPPC liposomes and about 1/6.5 of that of the DOPC/Sphingo/Chol liposomes.

The test system of the next data set is A431 cells. The data set is described as follows: Cytotoxicity test, MTT assay (Test Example 7). It counts as cell-based. Particulars: 1×10^−5 M, DMSO (1%) reference, incubation for 6 hours. The text has this: To evaluate whether the two-photon dyes of the present invention are cytotoxic or not, MTT assay was done on the two-photon dye prepared in Example 1. Specifically, A431 cells were stained with TPD1 (1×10^−5 M) and DMSO (1%) was used as a reference solvent. […] Therefore, it can be concluded that the two-photon dye of the present invention is suitable for imaging of living cells.
(In general: Tetrazolium assays rely on reduction of a dye to a coloured formazan, in cell work by metabolically active cells.)

Data set [3] in a line: Reflection tests of polarity of solvents, fluorescence spectra (Test Example 1). The format is physicochemical. The procedure:
Time-resolved fluorescence (TRF) spectra of the two-photon dyes prepared in Comparative Example 1 and Example 1 were measured to examine changes in the one-photon fluorescence wavelength of the dyes according to the polarity of solvents. In this test, hexane, DMF, ethanol and water were used as solvents. The polarity of the solvents increases in the order: hexane<DMF<ethanol<water. […] Since Laurdan has a long hydrocarbon tail, the dye molecules surrounded by the adjacent dye molecules were placed in a hydrophobic environment, and as a result, a blue shift was observed. […] From these observations, it can be concluded that Laurdan is not suitable for use in real-time imaging of lipid rafts.
On the other hand, time-resolved fluorescence (TRF) spectra of the two-photon dye (TPD4) prepared in Example 4 were measured to examine changes in the one-photon fluorescence wavelength of the dye according to the polarity of solvents. In this test, THF, DMF, ethanol and ethanol/water were used as solvents. The polarity of the solvents increases in the order: THF<DMF<ethanol<ethanol/water. […] As mentioned previously, the reason for this is because the fluorescence quantum yield and fluorescence lifetime of TPD4 in a hydrophilic environment were decreased drastically. Therefore, lipid rafts can be directly observed due to the difference in fluorescence intensity.

The conditions of data set [4]: cited from earlier work.

As to `CCCCCCCCCCCC(=O)c1ccc2cc(N(C)CC(=O)O)ccc2c1` [TPD1], in data set [1], the “two-photon absorption efficiency relative to the dye of Comparative Example 1” value is “about three to six times” and the “quantum yield in water relative to that in ethanol” value is “¼”. Moreover, in data set [1] (over the solvents), the “two-photon absorption efficiency, maximum” value stood at 323 GM and the “two-photon absorption efficiency, minimum” value is on record as 153 GM. Moreover, in data set [1] (solvent DMF), the “Φ (quantum yield)” value was 0.36, the “δmax (two-photon absorption efficiency)” value was found to be 167 GM, the “λ^(2)max (two-photon maximum absorption wavelength)” value (“λ^(2)max” below) was found to be 780 and the “λ^flmax (one-photon maximum emission wavelength)” value (from here on “λ^flmax”) is 446. Further, the “λmax (one-photon maximum absorption wavelength)” value (“λmax” below) in data set [1] (solvent DMF) came to 363. For the same compound, in data set [1] (solvent ethanol), the “Φ (quantum yield)” value is 0.43, the “δmax (two-photon absorption efficiency)” value is on record as 153 GM, the “λ^(2)max” value came out at 780 and the “λ^flmax” value is 494. In addition, in data set [1] (solvent ethanol), the “λmax” value was determined as 383. For the same compound, in data set [1] (solvent hexane), the “Φ (quantum yield)” value amounted to 0.10, the “λ^flmax” value amounted to 404 and the “λmax” value was determined as 345. Further, in data set [1] (solvent water), the “Φ (quantum yield)” value is given as 0.11, the “δmax (two-photon absorption efficiency)” value came out at 323 GM, the “λ^(2)max” value is listed as 820 and the “λ^flmax” value is 522. The “λmax” value in data set [1] (solvent water) was 384. In data set [2], the “fluorescence wavelength (peaks)” value is reported as 486 nm and the maximum fluorescence wavelength stood at 442 nm. Also, in data set [2] (in all liposomes), the “fluorescence intensity relative to Laurdan” value was 2-5 times. The “cytotoxicity (cell viability, MTT) versus reference solvent” value in the data set with A431 cells is “no significant difference in cytotoxicity”. In data set [3] (hexane<DMF<ethanol<water), the “maximum fluorescence wavelength as the polarity of the solvents increased” value is reported as “increased”.

With `CCCCCCCCCCCC(=O)c1ccc2cc(N(C)C)ccc2c1` [Laurdan, reference compound], in data set [4] (cell membranes), the “fluorescence emitted in lipid raft domains in a hydrophobic environment” value is recorded as 400 to 460 nm and the “fluorescence emitted in phospholipid domains in a hydrophilic environment” value is given as 470 to 530 nm. Further, in data set [4] (water), the “fluorescence emitted by the precipitate” value is 450 nm and the solubility in water result is “barely soluble in water”. Further, in data set [1] (solvent DMF), the “Φ (quantum yield)” value was 1.00, the “δmax (two-photon absorption efficiency)” value turned out to be 50 GM, the “λ^(2)max” value is listed as 780 and the “λ^flmax” value came to 454. The “λmax” value in data set [1] (solvent DMF) is listed as 356. Also, in data set [1] (solvent ethanol), the “Φ (quantum yield)” value turned out to be 1.00, the “δmax (two-photon absorption efficiency)” value was found to be 57 GM, the “λ^(2)max” value is on record as 780 and the “λ^flmax” value stood at 487. Further, the “λmax” value in data set [1] (solvent ethanol) is on record as 363. Besides, in data set [1] (solvent hexane), the “Φ (quantum yield)” value was 0.11, the “λ^flmax” value is reported as 407 and the “λmax” value is 344. In data set [1] (solvent water), the “Φ (quantum yield)” value is on record as 0.01, the “λ^flmax” value is 431 and the “λmax” value came to 354. Moreover, in data set [1], the “quantum yield in water relative to that in ethanol” value is listed as 1/100. In data set [2], the “fluorescence wavelength (peaks)” value is 439 nm and 484 nm; the maximum fluorescence wavelength came to 440 nm. Moreover, in data set [3] (water), the solubility in water result is recorded as “substantially insoluble in water” and the “wavelength of light emitted in water” value is 400-460 nm. Further, the “maximum fluorescence wavelength in water with the highest polarity” value in data set [3] (water versus less polar solvents) is “decreased (i.e. blue-shifted)”.

For the compound `CCCCCCCCCC(=O)/C=C/c1ccc2cc(N(C)CC(=O)OC(C)(C)C)ccc2c1` [TPD4], the “fluorescence intensity of DOPC liposomes relative to DPPC liposomes” value in data set [2] (stained liposomes) is on record as “⅛”. Also, in data set [3] (THF<DMF<ethanol<ethanol/water), the “fluorescence intensity as the polarity of the solvents increased” value is “reduced drastically”.
